Patent US5948791A, “Quinoline derivatives for treating malaria” (Hoffmann-La Roche Inc., priority 1995, dated 1999)
Read-outs that look alike come from different tables or passages of the source.

Experiments:
[1] = test system: Plasmodium falciparum strain NF54; test: Growth inhibition of Plasmodium falciparum NF54 (chloroquine-sensitive) in vitro, [G-3H]-hypoxanthin incorporation; type: cell-based; settings: read-out: IC50 for P. falciparum NF54
In short: (§1)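 Asynchronous intraerythrocytic cultures in human A+ erythrocytes (0.7% parasitemia, 2.5% suspension) in RPMI 1640 with HEPES, NaHCO3 and human serum, exposed to compound titrated over 6-7 steps for 72 h at 37° C, 3% O2. Growth by [G-3H]-hypoxanthin incorporation against untreated controls; IC50 by logit regression.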

[2] = test system: Plasmodium falciparum K1; test: Growth inhibition of Plasmodium falciparum K1 (chloroquine-resistant) in vitro, [G-3H]-hypoxanthin incorporation; type: cell-based, Plasmodium falciparum (strain K1); settings: for IC50: Plasmodium falciparum, K1, 72 h, read-out: IC50 for P. falciparum K1; for Resistance index: ratio of the IC50 for K1 and the IC50 for NF54
In short: as §1

[3] = test system: Plasmodium berghei; test: animal or person; type: in vivo, Plasmodium berghei (strain ANKA) in mice; settings: Plasmodium berghei
In short: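 Male albino mice (~25 g) infected i.v. on D0 with P. berghei ANKA (0.2 ml of 10^8 parasitized erythrocytes/ml); single s.c. and p.o. dose 24 h post-infection, 10 mg/kg screen then titration.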

[4] = chloroquine-sensitive strain NF54, 72 h
[5] = po, single peroral dose of 10 mg/kg, mice, blood smears 48 h after treatment, read-out: Growth inhibition in % after po administration (GI%, percentage reduction of the parasitemia)
[6] = sc, single subcutaneous dose of 10 mg/kg, mice, blood smears 48 h after treatment, read-out: Growth inhibition in % after sc administration (GI%, percentage reduction of the parasitemia)

Structure (SMILES) | IC50 [1, 4] | IC50 [2] | Resistance index [2] | inhibition in vivo at 10 mg/kg [3, 5] | inhibition in vivo at 10 mg/kg [3, 6] | IC50 ([1]; NF54, 72 h) | inhibition in vivo at 10 mg/kg ([3]; in Mus musculus, po, 48 h, read-out: Growth inhibition in % after po administration (GI%, percentage reduction of the parasitemia)) | inhibition in vivo at 10 mg/kg ([3]; in Mus musculus, sc, 48 h, read-out: Growth inhibition in % after sc administration (GI%, percentage reduction of the parasitemia))
Cl.Cl.Fc1cc(CN[C@H]2CC[C@@H](Nc3ccnc4cc(Cl)ccc34)CC2)ccc1Cl [Example 76, cis-N1-(7-Chloro-quinolin-4-yl)-N4-(4-chloro-3-fluoro-benzyl)-cyclohexane-1,4-diamine dihydrochloride] | 7.2 ng/mL | 6.1 ng/mL | 0.8 | 96% | 96% | – | – | –
Cl.Cl.Clc1ccc(CN[C@H]2CC[C@@H](Nc3ccnc4cc(Cl)ccc34)CC2)cc1 [Example 72, cis-N1-(7-Chloro-quinolin-4-yl)-N4-(4-chloro-benzyl)-cyclohexane-1,4-diamine dihydrochloride] | 11.6 ng/mL | 11.2 ng/mL | 1.0 | 99.5% | 99.9% | – | – | –
Cl.Cl.Clc1ccc(CN[C@H]2CCCC[C@@H]2Nc2ccnc3cc(Cl)ccc23)cc1 [Example 61, (1S,2S)-N1-(7-Chloro-quinolin-4-yl)-N2-(4-chloro-benzyl)-cyclohexane-1,2-diamine dihydrochloride] | 12.7 ng/mL | 11.2 ng/mL | 0.9 | 99.6% | 99.6% | – | – | –
Cl.Cl.Clc1ccc2c(N[C@H]3CCCC[C@@H]3NCc3ccccc3)ccnc2c1 [Example 60, (1S,2S)-N1-(7-Chloro-quinolin-4-yl)-N2-(benzyl)-cyclohexane-1,2-diamine hydrochloride (1:2)] | 7.7 ng/mL | 12.2 ng/mL | 1.6 | 67% | 87% | – | – | –
Cl.Cl.Clc1ccc2c(N[C@H]3CCCC[C@@H]3NCc3ccc(Cl)c(Cl)c3)ccnc2c1 [Example 63, (1S,2S)-N1-(7-Chloro-quinolin-4-yl)-N2-(3,4-dichloro-benzyl)-cyclohexane-1,2-diamine dihydrochloride] | 10.1 ng/mL | 14.6 ng/mL | 1.4 | 99.9% | 99.9% | – | – | –
CN(C)c1ccc(CN[C@H]2CC[C@H](Nc3ccnc4cc(Cl)ccc34)CC2)cc1.Cl.Cl.Cl [Example 113, trans-N1-(7-Chloro-quinolin-4-yl)-N4-(4-dimethylamino-benzyl)-cyclohexane-1,4-diamine trihydrochloride] | 3 ng/mL | 7.6 ng/mL | 2.5 | 99.7% | 99.9% | – | – | –
CCN(CC)CCCC(C)Nc1ccnc2cc(Cl)ccc12 (stereo not shown) [Chloroquine diphosphate, reference compound] | – | 95 ng/mL | 14.2 | – | – | 6.7 ng/mL | 99.9% | 99.9%
COc1cc(CN[C@H]2CC[C@@H](Nc3ccnc4cc(Cl)ccc34)CC2)cc(OC)c1.Cl.Cl [Example 82, cis-N1-(7-Chloro-quinolin-4-yl)-N4-(3,5-dimethoxy-benzyl)-cyclohexane-1,4-diamine dihydrochloride] | 5.7 ng/mL | 8.5 ng/mL | 1.5 | 99.9% | 99.9% | – | – | –
COc1ccc(CN[C@H]2CC[C@@H](Nc3ccnc4cc(Cl)ccc34)CC2)c(O)c1.Cl.Cl [Example 79, cis-N1-(7-Chloro-quinolin-4-yl)-N4-(2-hydroxy-4-methoxy-benzyl)-cyclohexane-1,4-diamine dihydrochloride] | 4.1 ng/mL | 7.7 ng/mL | 1.9 | 99.9% | 100% | – | – | –
Cl.Cl.Clc1ccc2c(N[C@H]3CC[C@@H](NCc4c(Cl)cccc4Cl)CC3)ccnc2c1 [Example 15, cis-N1-(7-Chloro-quinolin-4-yl)-N4-(2,6-dichloro-benzyl)-cyclohexane-1,4-diamine dihydrochloride] | 4.3 ng/mL | 14.7 ng/mL | 3.4 | – | 92% | – | – | –
